Measured values reported in patent publication US20160129005A1, “ADENINE DERIVATIVES HAVING IMMUNOMODULATING ANTI-INFLAMMATORY AND ANALGESIC ACTIVITY” (MEDESTEA RESEARCH & PRODUCTION S.p.A., priority 2011, published 2016).

Tests used:
[1] = system: C57BL/6 mice transplanted with BALB/c hearts; test: Murine heterotopic heart transplant model; format: in vivo, mouse; conditions: Rapamycin alone 0.1 mg/kg day 0 to day 10; n=5; Ctrl MST=7
Protocol: The immunosuppressive potential of […] was tested on a heterotopic heart transplant model; hearts of BALB/c mice were transplanted into the abdominal cavity of C57BL/6 mice.
The beats of the heart were measured, twice weekly, by palpation; stopping of beating was regarded as a sign of transplant rejection.
Three different protocols were used for prolonging transplant survival times: the “short-term” protocol ([…] 9 mg/kg daily for 14 days), the “long-term” protocol ([…] 9 mg/kg every day until rejection), and the “Combo” protocol ([…] on alternate days: day 0, 2, 4, 6, 8, 10, 12, 14+Rapamycin 0.1 mg/kg from day 0 to day 10).
In the acute heart transplant models, the hearts of BALB/c were transplanted into the peritoneal cavity of C57BL/6 mice. The control mice invariably reject the transplant in 10 days (Ctrl: MST=7 days, n=12), (FIG. 26). The “short-term” protocol permitted indefinite survival (100 days) in 10 mice out of 12 (n=12; p=0.0001 vs. Ctrl), (FIG. 26). Similarly, the “long-term” protocol permitted indefinite survival in 8 mice out of 10 (n=10; p=0.002 vs Ctrl), and prolonged survival in the remaining 2 (16 days and 25 days; p=0.002 vs. Ctrl), (FIG. 26).
The histological sections of the hearts on day 7 of BALB/c mice, transplanted into a C57BL/6 host, and treated with the “short-term” protocol, were also analysed.

Swiss CD1 mice = test: CFA thermal hyperalgesia, synergy with opioids
Protocol: We compared the activity of […] with that of the opioids to study its analgesic effect.
Mice of the Swiss CD1 type were given a single intraplantar injection of 30 microlitres of complete Freund adjuvant (CFA) in the right plantar pad. Intraperitoneal injection of […] and/or of morphine (morphine chlorhydrate, Molteni) was administered 24 hours after injection of CFA according to the following scheme:
1. […] 7.5 mg/kg; 2. […] 10 mg/kg; 3. […] 200 mg/kg; 4. […] 50 mg/kg; 5. Morphine 0.4 mg/kg; 6. Morphine 2.5 mg/kg; 7. Morphine 1 mg/kg; 8. Morphine 0.4 mg/kg; 9. Morphine 1 mg/kg+[…] 10 mg/kg; 10. Morphine 0.4 mg/kg+[…] 10 mg/kg; 11. Morphine 1 mg/kg+[…] 10 mg/kg; 12. Morphine 0.4 mg/kg+[…] 10 mg/kg; 13. Morphine 4 mg/kg.
Groups 9-11 and 10-12 have the same doses respectively; they were repeated to confirm the results.
Thermal hyperalgesia was assessed using the Ugo Basile apparatus (Comerio, Italy).
The test was carried out before (baseline values) injection of CFA, after injection of CFA and 0.5, 1, 2, 3, 6 and 12 hours after injecting the drug in the inflamed pad.

Structure (SMILES): CO[C@H]1C[C@@H]2CC[C@@H](C)[C@@](O)(O2)C(=O)C(=O)N2CCCC[C@H]2C(=O)O[C@H]([C@H](C)C[C@@H]2CC[C@@H](O)[C@H](OC)C2)CC(=O)[C@H](C)/C=C(\C)[C@@H](O)[C@@H](OC)C(=O)[C@H](C)C[C@H](C)/C=C/C=C/C=C/1C [Rapamycin, reference compound]
- MST (mean survival time) [1]: 25 days

Structure (SMILES): CN1CC[C@]23c4c5ccc(O)c4O[C@H]2[C@@H](O)C=C[C@H]3[C@H]1C5 [morphine, morphine chlorhydrate, reference compound]
- obsessive-compulsive disorders (behaviour) (Swiss CD1 mice; morphine 2.5 mg/kg or higher doses): displayed obsessive-compulsive disorders
- activity on nociception (Swiss CD1 mice; morphine alone i.p. at the highest dose): anaesthetic-like
